The source of these data is ChEMBL document CHEMBL1201862, “PubChem BioAssay data set” (2004).

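Dose response: 5 concentrations. Exposure: 48 h. Format: 96-well plates. Endpoint: linear interpolation; highest concentration if not reached. Here, GI50 denotes the concentration required for 50% inhibition of growth.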 Calls of active or inactive are those of the source. Rule as the data show it: active = GI50 up to about 1.1 µM and inactive = higher. A value given as a limit tells only on which side of the number the result lay.

Assay in all cases: DTP human tumour cell line panel, 48 h
Experiment [1] has as its system A549.
Experiment [2] relates to CCRF-CEM.
In experiment [3] the test system is HCC 2998.
The subject of experiment [4] is HL-60.
In experiment [5] the test system is HOP-92.
In experiment [6] the test system is Hs-578T.
Experiment [7] has as its system M14.
Experiment [8] has as its system MCF7.
For experiment [9], the system named is MDA-N.
The test system of experiment [10] is NCI-H23.
The subject of experiment [11] is NCI-H522.
Experiment [12] has as its system NCI/ADR-RES.
Experiment [13] concerns OVCAR-5.
Experiment [14] deals with OVCAR-8.
The test system of experiment [15] is SF-268.
Experiment [16] has as its system SF-295.
In experiment [17] the test system is SK-OV-3.
Experiment [18] deals with SW-620.
For experiment [19], the system named is T47D.
For experiment [20], the system named is U-251.

By GI50 is commonly meant the concentration giving 50% growth inhibition. For the compound `COc1cc(OC)c2c(=O)c(OC)c(-c3ccc4c(c3)OCO4)oc2c1OC`, the GI50 in [1] is > 100 µM (inactive); in experiment [2], 28.5 µM (inactive); in [3], > 100 µM (inactive); in [4] it was 6.82 µM (inactive); in experiment [5], 4.91 µM (inactive); in experiment [6], > 100 µM (inactive). For the same compound, the GI50 in experiment [7] is > 100 µM (inactive); in [8], > 100 µM (inactive); in experiment [9] it was > 100 µM (inactive); in [10], > 100 µM (inactive); in [11], 43.1 µM (inactive); in [12] it was > 100 µM (inactive). Moreover, the GI50 is > 100 µM (inactive) in experiment [13]; > 100 µM (inactive) in experiment [14]; > 100 µM (inactive) in [15]; 91.4 µM (inactive) in experiment [16]; > 100 µM (inactive) in experiment [17]; > 100 µM (inactive) in experiment [18]. In addition, the GI50 was 41.8 µM (inactive) in experiment [19] and > 100 µM (inactive) in experiment [20].
For `O=S(=O)(O)c1ccc(/N=N/c2ccc(/N=N/c3c(O)ccc4ccccc34)cc2)cc1`, the GI50 is > 100 µM (inactive) in experiment [1]; > 51.3 µM (inactive) in experiment [2]; > 100 µM (inactive) in [3]; 0.893 µM (active) in [4]; > 100 µM (inactive) in experiment [5]; > 100 µM (inactive) in [6]. Further, the GI50 in experiment [7] is > 100 µM (inactive); in experiment [8] it was > 100 µM (inactive); in experiment [9] it was > 100 µM (inactive); in experiment [10], > 94.2 µM (inactive); in experiment [11], > 100 µM (inactive); in experiment [12] it was > 100 µM (inactive). The GI50 in [13], in experiment [14], in [15], in [16], in experiment [17] and in [18] was > 100 µM (inactive) in each case. The GI50 is 97.9 µM (inactive) in experiment [19] and > 100 µM (inactive) in [20].
